This passage reports IC50 results from patent publication US20210198277A1, “AMINE-SUBSTITUTED ARYL OR HETEROARYL COMPOUNDS” (Epizyme, Inc., priority 2016, published 2021).

The IC50 is the concentration that gives 50% inhibition.

Some results are limits rather than exact numbers.

The target of one test is T1, EHMT1 (Homo sapiens, UniProt Q9H9B1).
T1 sequence (Q9H9B1 1-1298): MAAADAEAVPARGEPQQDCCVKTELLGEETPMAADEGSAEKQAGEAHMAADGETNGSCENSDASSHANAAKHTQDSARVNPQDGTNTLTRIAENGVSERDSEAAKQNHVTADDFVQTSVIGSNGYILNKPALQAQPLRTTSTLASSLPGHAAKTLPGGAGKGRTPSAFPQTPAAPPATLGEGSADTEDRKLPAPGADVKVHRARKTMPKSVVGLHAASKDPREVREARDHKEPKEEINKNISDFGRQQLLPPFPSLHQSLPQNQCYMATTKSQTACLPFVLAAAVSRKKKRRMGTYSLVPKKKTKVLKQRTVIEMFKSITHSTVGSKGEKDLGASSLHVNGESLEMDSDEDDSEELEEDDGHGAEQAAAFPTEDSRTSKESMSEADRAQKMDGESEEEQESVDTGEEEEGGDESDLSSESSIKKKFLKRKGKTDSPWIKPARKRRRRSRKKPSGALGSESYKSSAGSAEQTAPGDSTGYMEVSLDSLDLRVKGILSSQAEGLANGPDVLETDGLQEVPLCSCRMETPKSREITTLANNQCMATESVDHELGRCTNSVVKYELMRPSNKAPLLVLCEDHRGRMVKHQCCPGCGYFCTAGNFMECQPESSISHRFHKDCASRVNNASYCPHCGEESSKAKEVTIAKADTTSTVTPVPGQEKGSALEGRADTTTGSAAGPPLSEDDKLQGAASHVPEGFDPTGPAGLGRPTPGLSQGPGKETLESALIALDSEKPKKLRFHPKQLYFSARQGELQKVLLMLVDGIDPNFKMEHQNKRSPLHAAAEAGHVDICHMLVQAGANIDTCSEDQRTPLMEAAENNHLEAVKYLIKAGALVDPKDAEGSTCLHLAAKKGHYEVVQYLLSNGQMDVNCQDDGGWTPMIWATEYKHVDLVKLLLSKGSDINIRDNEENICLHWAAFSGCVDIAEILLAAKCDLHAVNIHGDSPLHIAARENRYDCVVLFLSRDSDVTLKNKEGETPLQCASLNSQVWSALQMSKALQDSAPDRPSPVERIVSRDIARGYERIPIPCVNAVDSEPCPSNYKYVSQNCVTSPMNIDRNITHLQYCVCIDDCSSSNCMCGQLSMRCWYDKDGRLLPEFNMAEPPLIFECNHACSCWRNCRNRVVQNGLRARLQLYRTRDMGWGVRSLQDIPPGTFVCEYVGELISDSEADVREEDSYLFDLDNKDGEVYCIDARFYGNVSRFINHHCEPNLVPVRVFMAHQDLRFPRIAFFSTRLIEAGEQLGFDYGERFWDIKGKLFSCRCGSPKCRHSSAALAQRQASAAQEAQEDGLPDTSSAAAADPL
As to the kind of experiment: EHMT1 enzyme assay on peptide substrate (EHMT1 PEP). The test is classed as biochemical. The following applies: read-out: EHMT1 PEP (IC50 μM).

In a further test the target is T2, human EHMT2 913-1193 (Homo sapiens, UniProt Q96KQ7).
T2 construct: recombinant purified human EHMT2 913-1193, Viva; purchased Viva
T2 sequence (Q96KQ7 913-1193): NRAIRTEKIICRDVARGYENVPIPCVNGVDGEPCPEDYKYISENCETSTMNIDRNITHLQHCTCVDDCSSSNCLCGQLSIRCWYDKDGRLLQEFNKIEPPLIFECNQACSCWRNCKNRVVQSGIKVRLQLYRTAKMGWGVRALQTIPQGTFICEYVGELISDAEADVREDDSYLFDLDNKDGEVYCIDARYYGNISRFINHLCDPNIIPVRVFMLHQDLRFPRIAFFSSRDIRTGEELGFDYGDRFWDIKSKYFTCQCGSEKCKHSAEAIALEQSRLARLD
As to the kind of experiment: EHMT2 enzyme assay on histone peptide substrate (EHMT2 PEP). The format is biochemical. The following applies: recombinant human EHMT2 913-1193, histone H3 1-15 peptide, balanced conditions; read-out: EHMT2 PEP (IC50 μM). Summed up: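 Compounds were tested as 3-fold dilutions, 10 points from a 50 μM final top (2% DMSO), after 30-min preincubation with 0.031 nM enzyme in Bicine buffer pH 7.5. Transfer of ^3H-methyl from ^3H-SAM to biotinylated histone peptide ran 60 min at room temperature and was detected by streptavidin Flashplate scintillation.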

For `c1nc(NC2CCNCC2)ncc1OCC1CCN(C2CC2)C1` (stereo not drawn) [Compound 556], the IC50 on EHMT1 and at human EHMT2 913-1193 was more than 10 µM in each case.
On to `COc1ccc(NC2CCCNC2)cc1OCCCN1CCCC1` (stereo not drawn) [Compound 573], for which the IC50 on EHMT1 and on human EHMT2 913-1193 was 1 to 10 µM throughout.
On to `CNc1ccnc(Nc2cc(OCCCN3CCCC3)c3cn[nH]c3c2)n1` [Compound 538, N^4-methyl-N^2-(4-(3-(pyrrolidin-1-yl)propoxy)-1H-indazol-6-yl)pyrimidine-2,4-diamine], for which the IC50 at EHMT1 and at human EHMT2 913-1193 was 0.1 to 1 µM throughout.
Regarding `COc1cc(Nc2nc(C)cc3[nH]ncc23)ncc1OCCCN1CCCC1` [Compound 565], the IC50 on EHMT1 and on human EHMT2 913-1193 was 1 to 10 µM in each case.
As for `COc1cc(NC2CCNCC2)ccc1OCCCN1CCCC1` [Compound 579], the IC50 at EHMT1 and at human EHMT2 913-1193 was 1 to 10 µM in each case.
Consider `CNc1ccnc(NC2CCCNC2)n1` (stereo not drawn) [Compound 541, N^4-methyl-N^2-(piperidin-3-yl)pyrimidine-2,4-diamine], for which the IC50 on EHMT1 and at human EHMT2 913-1193 was more than 10 µM in each case.
Consider `CNc1cc(C)nc(Nc2ccc(OC)c(OCC3CN(C4CCCC4)C3)c2)n1` [Compound 577], for which the IC50 is 0.1 to 1 µM on EHMT1 and 1 to 10 µM at human EHMT2 913-1193.
The matching figures for `CNc1cc(C)nc(Nc2ccc(OC)c(OC[C@@H]3CCN(C4CCC4)C3)c2)n1` [Compound 563]: less than 0.1 µM and less than 0.1 µM.
Consider `CCc1cc(NC)nc(Nc2cnc(OC)c(OC[C@@H]3CCN(CC)C3)c2)n1` [Compound 601], for which the IC50 was less than 0.1 µM at EHMT1 and 0.1 to 1 µM on human EHMT2 913-1193.
In the case of `COc1cnc(Nc2cccn3ccnc23)cc1OCCCN1CCCC1` [Compound 586], the concentration for half-maximal inhibition (IC50) at EHMT1 and at human EHMT2 913-1193 was 1 to 10 µM throughout.
On to `COc1ccc(Nc2nccc3[nH]ncc23)cc1OCCCN1CCCC1` [Compound 582], for which the half-inhibitory concentration (IC50) on EHMT1 and at human EHMT2 913-1193 was more than 10 µM each time.
Take `COc1ncc(Nc2nc(C)cc(NC(C)C)n2)cc1OCCCN1CCCC1` [Compound 593]: the IC50 on EHMT1 and at human EHMT2 913-1193 was 0.1 to 1 µM throughout.
For `CCCC1(Nc2nccc(NC)n2)CCCNC1` (stereo not drawn) [Compound 544], the IC50 on EHMT1 and at human EHMT2 913-1193 was more than 10 µM each time.
As to `CCN1CC(COc2cc(Nc3cc(NC)nc(C)c3F)ncc2OC)C1` [Compound 567], the IC50 on EHMT1 and at human EHMT2 913-1193 was 1 to 10 µM throughout.
Turning to `CCN1CC(C(C#N)Oc2cc(Nc3nc(C)cc(NC)n3)ccc2OC)C1` (stereo not drawn) [Compound 562], the IC50 at EHMT1 and at human EHMT2 913-1193 was 1 to 10 µM each time.
As to `COc1cnc(Nc2cccc3[nH]ncc23)cc1OCCCN1CCCC1` [Compound 581], the concentration for half-maximal inhibition (IC50) was more than 10 µM at EHMT1 and 1 to 10 µM at human EHMT2 913-1193.
Consider `COc1ccc(Nc2nc(C)cc(NC(C)C)n2)cc1OCCCN1CCCC1` [Compound 603], for which the IC50 at EHMT1 and on human EHMT2 913-1193 was less than 0.1 µM each time.
For the compound `CNc1cc(C)nc(Nc2ccc(OC)c(OC[C@@H]3CCN(C4(C)CC4)C3)c2)n1` [Compound 568], the IC50 on EHMT1 was less than 0.1 µM; on human EHMT2 913-1193, 0.1 to 1 µM.
The matching figures for `CNc1ccnc(NC2CCNCC2)n1` [Compound 542, N^4-methyl-N^2-(piperidin-4-yl)pyrimidine-2,4-diamine]: more than 10 µM and more than 10 µM.
Turning to `CNc1cc(C)nc(Nc2ccc(OC)c(OCC3CN(C(C)C)C3)c2)n1` [Compound 575], the IC50 on EHMT1 lay within 0.1 to 1 µM; on human EHMT2 913-1193, 1 to 10 µM.
In the same order, the values of `CNc1ccnc(N[C@@H]2CC[C@H](N)C2)n1` [Compound 548, N^2-((1R,3S)-3-aminocyclopentyl)-N^4-methylpyrimidine-2,4-diamine] are more than 10 µM and more than 10 µM.
Take `COc1cnc(Nc2cccc3nccn23)cc1OCCCN1CCCC1` [Compound 585]: the IC50 at EHMT1 and at human EHMT2 913-1193 was 1 to 10 µM in each case.
On to `CNc1ccnc(NC2(C)CCCNC2)n1` (stereo not drawn) [Compound 546, N^4-methyl-N^2-(3-methylpiperidin-3-yl)pyrimidine-2,4-diamine], for which the IC50 at EHMT1 and at human EHMT2 913-1193 was more than 10 µM each time.
On to `COc1ncc(Nc2nc(C)cc(NCC3CCOCC3)n2)cc1OCCCN1CCCC1` [Compound 591], for which the IC50 at EHMT1 and on human EHMT2 913-1193 was less than 0.1 µM in each case.
As for `COc1ccc(NC2CCNCC2)cc1OCCCN1CCCC1` [Compound 572], the IC50 at EHMT1 and on human EHMT2 913-1193 was more than 10 µM throughout.
For the compound `COc1cc(NC2CCCNC2)ccc1OCCCN1CCCC1` (stereo not drawn) [Compound 578], the IC50 on EHMT1 and at human EHMT2 913-1193 was 1 to 10 µM in each case.
For the compound `COc1ccc(Nc2nc(C)cc(NCC3CCOCC3)n2)cc1OCCCN1CCCC1` [Compound 590], the IC50 at EHMT1 and on human EHMT2 913-1193 was less than 0.1 µM in each case.
`CN1CCC(COc2cnc(NCC3CCOCC3)nc2)C1` (stereo not drawn) [Compound 553]: the IC50 at EHMT1 and at human EHMT2 913-1193 was more than 10 µM each time.
Consider `COc1cnc(Nc2cc(C)nc3[nH]ncc23)cc1OCCCN1CCCC1` [Compound 596], for which the IC50 at EHMT1 and on human EHMT2 913-1193 was 1 to 10 µM in each case.
For `COc1ncc(Nc2nc(C)cc(NCC3CCOCC3)n2)cc1OC[C@@H]1CCN(C2CCC2)C1` [Compound 594], the IC50 at EHMT1 was less than 0.1 µM; on human EHMT2 913-1193, 0.1 to 1 µM.
As for `CC(C)N1CC(COc2cnc(NC3CCNCC3)nc2)C1` [Compound 588], the IC50 at EHMT1 and on human EHMT2 913-1193 was more than 10 µM each time.
As for `CN1CCC(COc2ccc(NC3CCNCC3)nc2)C1` (stereo not drawn) [Compound 554], the IC50 at EHMT1 and at human EHMT2 913-1193 was more than 10 µM in each case.
Turning to `CNc1cc(C)nc(Nc2ccc(OC)c(OCC3CN(C4CCOC4)C3)c2)n1` (stereo not drawn) [Compound 580], the 50% inhibitory concentration (IC50) on EHMT1 and on human EHMT2 913-1193 was more than 10 µM in each case.
With `CNc1cc(C)nc(Nc2ccc(OC)c(O)c2)n1` [Compound 561], the IC50 on EHMT1 and at human EHMT2 913-1193 was more than 10 µM throughout.
On to `c1nc(NC2CCOCC2)ncc1OCC1CCN(C2CC2)C1` (stereo not drawn) [Compound 557], for which the IC50 on EHMT1 and at human EHMT2 913-1193 was more than 10 µM each time.
Take `CNc1ccnc(Nc2cc(OCCCN3CCCC3)c3[nH]ncc3c2)n1` [Compound 539]: the IC50 at EHMT1 is more than 10 µM; on human EHMT2 913-1193, 1 to 10 µM.
Turning to `CNc1cc(C)nc(Nc2ccc(OC)c(OCC3CN(C4CCC4)C3)c2)n1` [Compound 576], the results for the IC50 on EHMT1 and at human EHMT2 913-1193 were less than 0.1 µM and 0.1 to 1 µM, respectively.
Consider `CNc1ccnc(NC2(C)CCNCC2)n1` [Compound 547, N^4-methyl-N^2-(4-methylpiperidin-4-yl)pyrimidine-2,4-diamine], for which the IC50 on EHMT1 and on human EHMT2 913-1193 was more than 10 µM each time.
On to `CCCCN1CCCC(C)(Nc2nccc(NC)n2)C1` (stereo not drawn) [Compound 549, N^2-(1-butyl-3-methylpiperidin-3-yl)-N^4-methylpyrimidine-2,4-diamine], for which the IC50 on EHMT1 and on human EHMT2 913-1193 was more than 10 µM throughout.
With `c1nc(NC2CCNCC2)ncc1OCCCN1CCCC1` [Compound 552], the IC50 at EHMT1 and at human EHMT2 913-1193 was more than 10 µM in each case.
In the case of `CNc1cc(C)nc(Nc2ccc(OC)c(OCCCN3CC4(CC4)C3)c2)n1` [Compound 574], the IC50 on EHMT1 and at human EHMT2 913-1193 was 1 to 10 µM throughout.
For the compound `CNc1cc(C)nc(Nc2ccc(OC)c(OCC3CN(C(C)C)C3)c2)n1` [Compound 559], the IC50 is less than 0.1 µM on EHMT1 and 0.1 to 1 µM at human EHMT2 913-1193.
